Entries after “also recorded” stand apart in the source; their conditions may differ.

Experiment [1] relates to mouse middle cerebral artery occlusion (MCAO) stroke model. The settings on record: in vivo.
Experiment [2] concerns primary cortical neurons. Type of experiment: cell-based.
The subject of experiment [3] is primary cortical neurons.
In experiment [4] the test system is primary cortical neurons. Format: cell-based. This is another data set of the same source.
Experiment [5] has as its system mouse middle cerebral artery occlusion (MCAO) stroke model. The settings on record: in vivo. The source holds these as a separate data set.
Experiment [6] deals with primary cortical neurons. The source holds these as a separate data set.
Experiment [7] concerns mouse middle cerebral artery occlusion (MCAO) stroke model. To be noted: in vivo. This is another data set of the same source.
Experiment [8] concerns primary cortical neurons. Format: cell-based. The source holds these as a separate data set.

Consider `C[C@@H](NC(=O)[C@@H](N)Cc1ccc(O)cc1)C(=O)NCC(=O)N[C@@H](Cc1ccccc1)C(=O)NNC(=O)[C@H](Cc1ccccc1)NC(=O)CNC(=O)[C@@H](C)NC(=O)[C@@H](N)Cc1ccc(O)cc1` [biphalin], for which, in experiment [1], the neurological score improvement is on record as 25.5% and the “neurological score, in words” value is on record as “improved neurological behavior”. Further, in experiment [2], the “ROS production, in words” value was “significantly decreased ROS production” and the “less ROS production” value worked out at 29.1%. For the same molecule, the “neuronal survival (MTT), NMDA, in words” value in experiment [3] is reported as “significantly improved relative neuronal survival”. The “more neuronal survival (MTT), NMDA” value in experiment [3] (3 h) was 28.7%. Moreover, in experiment [4], the “less LDH release” value is 30.5% and the “neuronal death (LDH), in words” value is given as “significantly decreased neuronal cell death”. In experiment [5], the “edema formation, in words” value is listed as “significantly decreased edema formation”; the “infarct formation, in words” value was “significantly decreased; also recorded: significantly reduced infarct formation”; the “reduction in edema formation” value is 56.17%; the “reduction in infarct ratio” value is 67.0%. Further, the “neuronal survival (MTT), in words” value in experiment [6] is recorded as “significantly increased neuronal survival”. The “more neuronal survival (MTT)” value in experiment [6] (3 h, 10 nM) turned out to be 42.6%. In experiment [7], the “Horizontal Activity” value is 760, the “No. of Movements” value amounted to 42, the “Rest Time” value stood at 240 s and the “Stereotpy Counts” value amounted to 390. In experiment [7], the “Total Distance (CM)” value is 650 CM; the “Vertical Activity” value was determined as 28; the “locomotor parameters, in words” value is listed as “statistically significantly improved all the locomotor parameters”. Further, in experiment [8], the “less LDH release, NMDA” value amounted to 18.4% and the “neuronal death (LDH), NMDA, in words” value is recorded as “significantly decreased relative neuronal death”.
Regarding `O=C1CC[C@@]2(O)[C@H]3Cc4ccc(O)c5c4[C@@]2(CCN3CC2CC2)[C@H]1O5` [NTX, naltrexone], in experiment [1], the “neurological score, in words” value is on record as “did not improve any neurological score”. The “ROS production, in words” value in experiment [2] is on record as “did not show a significant decrease in ROS production”. For the same molecule, in experiment [3], the “neuronal survival (MTT), NMDA, in words” value was “did not show any significant effect”. The “neuronal death (LDH), in words” value in experiment [4] is “No statistical significant difference”. Moreover, the “neuronal survival (MTT), in words” value in experiment [6] was “No statistical significant difference”. Besides, the “neuronal death (LDH), NMDA, in words” value in experiment [8] was “did not show any significant effect”.

(Values after patent publication US20210196782A1 (priority 2015, published 2021).)
